Source: US20070142306A1, “Strontium-based complexes, pharmaceutical compositions and dietetic products” (MEDESIS PHARMA SA, priority 2003, published 2007)
Where “and” joins values, the source holds several entries; their conditions need not be identical. Equal values may be shown once.

How the values were obtained:
female Wistar rats = assay: Femoral head (epiphyseal) diameter / bone growth after 21 days rectal treatment; type: in vivo, rat
Description: (§1) Administration to female Wistar rats weighing 200 g.
Number of animals per group: 6 and 8.
Text complex: NP05 (composition produced according to the invention, in which only the quantity of strontium varies).
(§2) Volume of administration: 2 ml/kg.
(§3) Route of administration: Rectal route.
(§4) Dose frequency: Once a day—every 24 hours.
(§5) Treatment duration: 21 days.
(§6) The animals were sacrificed and the femoral bones were removed, cleaned of their tendinous and muscular attachments, then frozen.
The femoral epiphyseal diameter was measured.

[1] = Assay of strontium in femoral bones by atomic absorption spectrometry; type: in vivo, rat; conditions: 3 weeks treatment, 68.2 mg/kg/d
Description: as §1, §2, §3, §4, §5, §6
Strontium was then assayed in the bones by atomic absorption spectrometry.
The assay of strontium in bone was carried out.

osteoblast = conditions: cited from earlier work
osteoclast = conditions: cited from earlier work
rat model = conditions: administration for 8 weeks; cited from earlier work
postmenopausal women = conditions: 2 mg per day, two years; cited from earlier work
animal = conditions: cited from earlier work
humans = conditions: in humans; cited from earlier work

[Cl-].[Cl-].[Sr+2] [Strontium chloride, strontium chloride]
effect on bone growth (female Wistar rats; 3 weeks treatment, compared with control animals (NP05 also with the strontium chloride group)): no effect
Diameter of femoral head, Mean (female Wistar rats; group mean, 68.2 mg/kg strontium metal, rectal, 21 days): 4.01 millimeters
Diameter of femoral head, Femur 1 (female Wistar rats; individual rats, 68.2 mg/kg strontium metal, rectal, once a day, 21 days): 4 millimeters
Diameter of femoral head, Femur 2 (female Wistar rats; individual rats, 68.2 mg/kg strontium metal, rectal, once a day, 21 days, 68.2 mg/kg): 4 millimeters (7×) and 4.1 millimeters
strontium incorporation in bone compared with the controls [1]: 4
osteoblast proliferation (osteoblast): stimulation
osteoclast multiplication (osteoclast): inhibition
minimum dose stimulating bone growth (rat model): 68.2 mg of strontium (metal)

N#Cc1c(N(CC(=O)[O-])CC(=O)[O-])sc(C(=O)[O-])c1CC(=O)[O-].[Sr+2].[Sr+2] [strontium ranelate]
osteoblast proliferation (osteoblast): stimulation
osteoclast multiplication (osteoclast): inhibition
minimum dose stimulating bone growth (rat model): 68.2 mg of strontium (metal)
bone alkaline phosphatase (marker of bone formation) (postmenopausal women): significantly increased
bone mineral density in the lumbar spine (postmenopausal women): significant increase
marker of bone resorption (postmenopausal women): decreased
dose required for therapeutic activity in animal studies (animal; as strontium ranelate, corresponding to 68.2 mg of strontium metal): 200 mg per day
dose causing toxic effects (osteomalacic bone lysis) (animal; ranelate dose, four times the active dose): above 800 mg per day
amount necessary to obtain therapeutic activity (humans): 2 g/day
